Assay results reported in patent publication US20140322076A1, “ANTIMICROBIAL COMPOSITION” (priority 2011, published 2014).

Key:
Assay type in all cases: cell-based
[1] = tested on: Escherichia coli (10536 strain); test: Antimicrobial efficacy, 15 seconds contact suspension assay (Examples 1 and 3); conditions: for MBC (Minimum Biocidal Concentration): lowest concentration with complete kill after 15 seconds contact, active alone, upper boundary to the MBC; for NMBS: Example 3, gamma-terpineol, contact time 15 seconds, concentrations (% w/v) as given per example
Procedure: The efficacies of antimicrobial agents can be usefully compared by determining the Minimum Biocidal Concentration (MBC). The MBC is defined as the lowest absolute concentration of the particular active that provides complete kill (zero bacterial growth).
ΣFBC=FBC(component 1)+FBC(component 2)+FBC(component 3)+ . . . etc
such that • ΣFBC≧1 corresponds to additive or antagonistic bactericidal activity • ΣFBC<1 corresponds to synergistic bactericidal activity
Antimicrobial efficacy is tested against a representative pathogenic bacterial organism, Gram negative Escherichia coli. Concentrations of actives are expressed in terms of the percentage weight/volume (% w/v) throughout Example 1.
An overnight culture of Escherichia coli (10536 strain) was prepared in 50 ml total volume of TSB broth, grown for ca. 18 hrs at 37° C. and shaken at 150 rpm. 1 ml of this overnight E. coli culture was transferred to 50 ml of fresh TSB broth and incubated at 37° C. at 150 rpm for ca. 4 hours. This culture was separated into equal volumes and centrifuged at 4000 rpm for 15 minutes, washed with sterile saline (0.85% NaCl), centrifuged once more and re-suspended in saline to give a final concentration of 0.8 OD620 equivalent to about 10^8 cells per millilitre for this particular organism. Here, OD620 indicates the absorbance of a sample in a cuvette of 1.0 cm path length at a wavelength of 620 nm. This bacterial stock was used for assaying against antimicrobial actives (in triplicate).
The following assay describes the testing of 8 materials using 6 dilutions across half of a 96-well micro titre plate (MTP). Using this approach it is possible to assay 16 actives (without replicates) with one full dilution plate, replicating this set up in two halves of the plate columns, 1-6 and 7-12.
1M solutions of the test actives were prepared in dimethylsulphoxide (DMSO).
Aliquots (270 μl) of the materials at 1.11 times the final concentration were dispensed into the wells of the MTP along one column (A1-H1). This MTP was labelled as the “Screening plate”.
In another MTP, labelled as the “Dilution plate”, 270 μl of D/E neutralising solution from DIFCO Composition was added to column 1. The composition of the neutralising solution was as follows: pancreatic digest of casein, 5.0 g/L; Yeast Extract, 2.5 g/L; Dextrose, 10 g/L, sodium thioglycollate, 1.0 g/L, sodium thiosulphate, 6.0 g/L; sodium bisulphite, 2.5 g/L; Polysorbate 80, 5.0 g/L; lecithin 7.0 g/L; bromocresol purple, 0.02 g/L with a pH in the range 7.6±0.2.
270 μl of tryptone diluent solution was added to all the remaining wells of the Dilution MTP (columns 2-6).
Bacterial stock (30 μl) was then added to the prepared 270 μl of the solution of actives in the Screening Plate and mixed, using a multichannel pipette with 8 tips to aspirate and dispense the same volume of bacterial stock in parallel to 8 wells in rows A-H. After a contact time of 15 seconds, the mixtures were quenched by transferring 30 μl volumes of the mixtures into the 270 μl D/E neutralising solution in the prepared dilution plate, using aspiration to mix. After exactly 5 minutes in the D/E neutralising solution, 30 μl volumes were transferred from column 1 to column 2 of the Dilution MTP and mixed, before transferring further 30 μl volumes from column 2 into column 3. This process was repeated serially diluting the bacteria across the plate to column 6.
30 μl volumes from each well in the Dilution MTP were transferred onto pre-labelled segment of Tryptone Soya Agar (TSA) plates starting from the lowest bacterial concentration (highest dilution, column 6) to the highest bacterial concentration (column 1). The TSA plates were allowed to stand for ca. 2 hours so that the 30 μl inocula spots could dry and the plates were then inverted and incubated overnight at 37° C. before enumerating the bacterial colonies at the labelled dilutions to determine the effects of the actives on bacterial growth.

[2] = tested on: Escherichia coli (E. coli - ATCC #10536); test: High resolution MBC synergy assay in phosphate buffer containing 35% dipropylene glycol (Example 2); conditions: for ΣFBC: calculated from Ca/MBCA + Cb/MBCB; for MBC of the component alone (MBCA, MBCB): complete kill in 15 seconds, phosphate buffer, 35% DPG
Procedure: The materials were sourced in the same way as for Example 1. Synergy tests were conducted using standard microtiter plate assays with phosphate buffer containing 35% dipropylene glycol (DPG). […] The MBC plate was inoculated one column at a time with the test microorganism. An aliquot of the inoculated well was transferred at 15 seconds to a plate containing a neutralizing agent (D/E Neutralizing Broth), mixed and held for 5 minutes before being transferred to a growth plate containing trypticase soy broth (TSB). The TSB plate was incubated at 37° C. and read for the presence/absence of growth at 24 hours. […] This microorganism is representative of natural contaminants in many consumer and industrial applications.

[3] = tested on: Escherichia coli (E. coli - ATCC #10536); test: Automated assessment of efficacy in surfactant base (Example 4); conditions: for MBC: in 2.85% sodium cocoyl glycinate + 1.85% sodium lauroamphoacetate solution at pH 10; for 15 second bactericidal efficacy (in words): in combination with alpha-terpineol at concentrations lower than their MBC, surfactant formulation
Procedure: In these examples, the efficacy of combinations of isopropylmethylphenols and terpineol were tested in a surfactant cleansing formulation comprising 2.85% sodium cocoyl glycinate and 1.85% sodium lauroamphoacetate. This corresponds to a 50% in use dilution with water of a typical neat formulation containing 5.7% cocoyl glycinate and 3.7% % sodium lauroamphoacetate during hand washing. Solutions were prepared such that the concentrations of the surfactant components and test actives were 1.1 times the final desired concentration in order to allow for dilution with the bacterial inoculum in the test. The solutions were manually adjusted to pH 10.0 by dropwise addition of sodium hydroxide solution, as measured with a pH meter at ambient temperature. Solutions of the isopropylmethylphenols and/or terpineols were prepared at a maximum of 24 hours before testing. The same terpineol was used as in Example 1.
The efficacy of the combinations of the present invention was determined against the same bacterium as in Example 1, Escherichia coli (E. coli—ATCC #10536), at a concentration of approximately 1×10^8 bacteria per mL.
Tests were conducted using standard microtiter plate assays using an automated liquid handling system. 270 μl of the surfactant test solution was pipetted into each well of the microtitre plate (Nunc F Gamma Irradiated 96F untreated microtitre plates of clear polystyrene) and 30 μl of the bacterial suspension was then added. After exactly 15 seconds of bacterial exposure, a 30 μl volume of bacterial cells was withdrawn and transferred to 270 μl of D/E quench solution. After 5 minutes in the D/E quench, the optical density (OD) was measured for each plate in turn at two specific wavelengths (450 nm and 590 nm). These provide a dual check of antimicrobial activity, as the OD450 reading is specific for the yellow colour of D/E quench when bacterial growth is observed, whereas OD590 is specific for the initial purple colour of the D/E quench which is retained if no bacterial growth is observed. After the time zero OD measurements, plates were then incubated at 37° C. overnight (16 hours) before repeating the OD measurements. Delta OD values were calculated by subtracting […] at time=16 hours.
Bacterial growth is observed as an increase in OD450 and a decrease in OD590. To identify antibacterially efficacious systems (those preventing appreciable bacterial growth after incubation), the following threshold changes in OD readings have been adopted: if (1). OD450 increases by less than 0.2 absorbance unit (AU) on incubation and (2). OD590 decreases by less than 0.35 AU on incubation. Conversely, where OD450 increases by more than 0.1 AU and OD590 decreases by more than 0.1 AU after incubation, corresponding to a colour shift from purple to yellow, the test system allows bacterial growth and is not deemed efficacious. Four replicate measurements in the same plate have been made for each test system. The number of replicate wells showing either bacterial growth or no growth is also readily assessed by eye by following the colour change. Thymol and terpineol were tested both alone and in combination for comparison purposes.
In each case, binary mixtures were assessed in the weight to weight ratio isopropylmethylphenol to alpha terpineol of 1:2.5.

| Structure (SMILES) | MBC (Minimum Biocidal Concentration) [1] [% w/v] | MBC [3] [% w/v] | NMBS [1] [log CFU/ml] | other results |
| --- | --- | --- | --- | --- |
| Cc1cc(O)cc(C(C)C)c1 [3-isopropyl-5-methylphenol] | 0.05 | >0.2 |  | ΣFBC [2]: 1.00; MBC of the component alone (MBCA, MBCB) [2]: 0.5 weight %; 15 second bactericidal efficacy (in words) [3]: complete kill in all 4 replicates |
| CC(C)=C1CCC(C)(O)CC1 (stereo not shown) [3:4, gamma-terpineol] |  |  | 7.84 |  |
| Cc1cc(O)ccc1C(C)C [3:5, 4-isopropyl-3-methylphenol] |  |  | 4.98 |  |
| Cc1cc(O)ccc1C(C)C [3:6, 4-isopropyl-3-methylphenol] |  |  | 7.78 |  |
| Cc1cc(O)ccc1C(C)C [3:7, 4-isopropyl-3-methylphenol] |  |  | 7.79 |  |
| Cc1cc(O)ccc1C(C)C [4-isopropyl-3-methylphenol] | 0.075 | >0.2 |  | 15 second bactericidal efficacy (in words) [3]: complete kill in all 4 replicates |
| CC1=CCC(C(C)(C)O)CC1 (stereo not drawn) [alpha-terpineol] |  | >0.5 |  | reduction of the terpineol concentration required for complete kill ([1]; 0.4% alone to […] in combination with […] w/v 4-isopropyl-3-methylphenol or 3-isopropyl-5-methylphenol): 2.7 fold; ΣFBC [2]: 1.00; MBC of the component alone (MBCA, MBCB) [2]: 0.6 weight % |
| CC(C)=C1CCC(C)(O)CC1 (stereo not shown) [gamma-terpineol] | 0.3 |  |  |  |
| Cc1ccc(C(C)C)c(O)c1 [thymol, thymol (2-isopropyl-5-methylphenol)] | 0.05 | >0.2 |  |  |
